Measured values: BindingDB's records for doi:10.1021/jm00090a012 (National Institute of Diabetes and Digestive and Kidney …, 1992)

Legend:
[1] = Binding affinity against sigma receptor from guinea pig brain, using [3H](+)-3-PPP as radioligand.
[2] = Binding affinity against sigma receptor from guinea pig brain, using [3H](+)-pentazocine as radioligand.
[3] = biological target: Sigma non-opioid intracellular receptor 1 (Cavia porcellus) (UniProt Q60492); test: as above
[4] = Binding affinity against phencyclidine (PCP) receptor from guinea pig brain, using [3H]TCP as radioligand.

Chain of Sigma non-opioid intracellular receptor 1 (Cavia porcellus) (Q60492 whole entry, looked up): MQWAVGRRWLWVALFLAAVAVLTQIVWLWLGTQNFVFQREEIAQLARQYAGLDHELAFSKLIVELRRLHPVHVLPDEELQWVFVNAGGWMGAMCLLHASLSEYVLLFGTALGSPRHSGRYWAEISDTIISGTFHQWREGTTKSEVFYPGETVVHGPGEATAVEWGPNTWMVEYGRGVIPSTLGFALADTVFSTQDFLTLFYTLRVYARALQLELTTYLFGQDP

Compound | Ki [1] [nM] | Ki [2] [nM] | Ki [3] [nM] | Ki [4] [nM]
FCCCCCN1CCN(CCc2ccc(Cl)c(Cl)c2)CC1 | 0.86 | 0.52 |  | 
FCCCN(CCc1ccc(Cl)c(Cl)c1)CCN1CCCC1 | 4.22 |  |  | 
FCCCN1CCN(CCc2ccc(Cl)c(Cl)c2)CC1 |  |  | 0.39 | 
Clc1ccc(CCN2CCN(CCCI)CC2)cc1Cl | 1.3 | 1.2 |  | 
CCCCCN1CC[C@@]2(C)c3cc(O)ccc3CC1[C@H]2C [(6R,11S)-6,11-Dimethyl-3-pentyl-1,2,3,4,5,6-hexahydro-2,6-methano-benzo[d]azocin-8-ol] |  |  |  | 9040
